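Growth conditions: 96-well plates. Treatment: test compound, 48 hours, 5 concentrations. Analysis: linear interpolation between bracketing concentrations; unreached endpoints set to highest concentration. GI50 = concentration required for 50% inhibition of growth. TGI is the concentration that stops growth completely.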
Experiments:
Experiment in all cases: NCI anticancer screen, dose series, 48 h
[1] = test system: DU-145 prostate
[2] = test system: HCC-2998 colon
[3] = test system: HCT-116 colon
[4] = test system: LOX IMVI melanoma
[5] = test system: M14 melanoma
[6] = test system: MCF7 breast
[7] = test system: MDA-N
[8] = test system: OVCAR-3 ovarian
[9] = test system: SK-MEL-2 melanoma
[10] = test system: BT-549 breast
[11] = test system: UACC-257 melanoma

Structure (SMILES)	TGI [1]	TGI [2]	TGI [3]	TGI [4]	TGI [5]	TGI [6]	TGI [7]	TGI [8]	TGI [9]	TGI [10]	TGI [11]	GI50 [1]	GI50 [2]	GI50 [3]	GI50 [4]	GI50 [5]	GI50 [6]	GI50 [8]	GI50 [9]	GI50 [11]
COc1cccc(N/C(C)=C2/CCOC2=O)c1	> 10 µM	> 10 µM	> 10 µM	> 10 µM	> 10 µM	> 10 µM	> 10 µM	> 10 µM	> 10 µM											
Cc1cc(C)cc(Nc2nnc3n2S(=O)(=O)c2cc(C)c(Cl)cc2S3)c1	97 µM	16.6 µM	> 100 µM	21.3 µM	33.4 µM	36 µM		17.5 µM	15.8 µM	70.9 µM	30.5 µM									
[N-]=[N+]=CC(=O)C1(C(=O)C=[N+]=[N-])CC1		> 100 µM	> 100 µM	> 100 µM	> 100 µM			> 100 µM	> 100 µM		> 100 µM									
COc1ccc(C=Nc2ccc(-c3nc4ccccc4s3)cc2)cc1OC	> 100 µM	40 µM	> 100 µM	45.5 µM	> 100 µM		99 µM	51.9 µM	48.1 µM	> 100 µM	61 µM									
CCOC(=O)/C(Br)=C1\OC(=O)c2ccccc2-c2ccccc21		> 100 µM	> 100 µM	> 100 µM	> 100 µM			> 100 µM	> 100 µM		> 100 µM									
Cn1c(N/N=C/c2ccccc2)nc(-c2ccc3c(c2)OCO3)c(C#N)c1=O	> 100 µM		> 100 µM	> 100 µM	> 100 µM	> 100 µM	> 100 µM	90.6 µM	> 100 µM		> 100 µM									
Cc1cc(N(CCC#N)S(=O)(=O)c2ccccc2)ccc1C=Nc1cccc(C(=O)O)c1		> 100 µM	> 100 µM		> 100 µM			> 100 µM	> 100 µM		> 100 µM									
C1=N[C@]23C(=N[C@H](N=C2NCc2ccco2)[C@]24N=CNC2=N[C@H]3N=C4NCc2ccco2)N1	> 100 µM	> 100 µM	> 100 µM	> 100 µM	> 100 µM	> 100 µM		> 100 µM	> 100 µM		> 100 µM	> 100 µM	> 100 µM	> 100 µM	> 100 µM	> 100 µM	> 100 µM	> 100 µM	> 100 µM	> 100 µM
CCC(=O)OC1CCn2c1nc1c2C(=O)C(C)=C(NC(C)=O)C1=O (configuration not stated)		5.13 µM	3.21 µM	2.7 µM	3.32 µM			0.572 µM	3.41 µM		3.15 µM									
CC(C)OP(=O)(OC(C)C)C(=NCCO)NNc1ccc([N+](=O)[O-])cc1		> 100 µM	> 100 µM	> 100 µM	> 100 µM			> 100 µM	> 100 µM		> 100 µM									
CCOC(=O)Cc1c(C)c2ccc(OC(C)=O)c(OC(C)=O)c2oc1=O	> 100 µM		> 100 µM	73.9 µM	> 100 µM	77.1 µM	> 100 µM	> 100 µM	> 100 µM		51.1 µM									
O=C(O)c1cc2ccccc2c(Cc2c(O)c(C(=O)O)cc3ccccc23)c1O	> 100 µM	> 100 µM	> 100 µM	> 100 µM	> 100 µM		> 100 µM	> 100 µM	> 100 µM	> 100 µM	> 100 µM									
CC(NC(=O)Cc1ccc(OP(=O)(OCc2ccc([N+](=O)[O-])o2)N(C)CCCCCl)cc1)c1ccc(OCC2CCCCC2)c(C(N)=O)c1 (configuration not stated)	14.4 µM	2.98 µM	4.52 µM	3.28 µM	4.64 µM	6.75 µM	3.94 µM	3.75 µM	5.89 µM		3.27 µM									
O=C(NN1C(=O)C(Cl)C1c1cccc(O)c1)c1ccccc1O (configuration not stated)		> 100 µM	> 100 µM	> 100 µM	> 100 µM			> 100 µM	> 100 µM		> 100 µM									
CON(C)c1nc(N)c(C#N)c(C#N)c1C#N	> 10 µM	> 10 µM	> 10 µM	> 10 µM	> 10 µM	> 10 µM	> 10 µM	> 10 µM	> 10 µM											
CC(=O)c1ccc(N2C(=O)C3c4[nH]c5ccccc5c4C4CCC(C(C)(C)C)CC4C3C2=O)cc1 (configuration not stated)		35.8 µM	30.7 µM		67.8 µM						> 100 µM									
C=CCn1c(-c2cc(C(C)(C)C)c(O)c(C(C)(C)C)c2)cs/c1=N\C(P(=O)(O)O)P(=O)(O)O	> 100 µM	> 100 µM	> 100 µM		> 100 µM	> 100 µM		> 100 µM	> 100 µM	> 100 µM										
Cc1ccc(S(=O)(=O)NC(=O)Nc2c(S(N)(=O)=O)cc(S(N)(=O)=O)c(Cl)c2Cl)cc1		> 100 µM	> 100 µM	> 100 µM	> 100 µM	> 100 µM	> 100 µM	> 100 µM	> 100 µM	> 100 µM	> 100 µM									

Structure (SMILES)	TGI [1]	TGI [2]	TGI [3]	TGI [4]	TGI [5]	TGI [6]	TGI [7]	TGI [8]	TGI [9]	TGI [10]	TGI [11]	GI50 [1]	GI50 [2]	GI50 [3]	GI50 [4]	GI50 [5]	GI50 [6]	GI50 [8]	GI50 [9]	GI50 [11]
c1ccc2c(c1)nnn2CNc1ccc(N2CCCCC2)cc1		> 100 µM	> 100 µM	> 100 µM	> 100 µM			> 100 µM	> 100 µM		> 100 µM									
Oc1ccc(-c2c3ccccc3c(-c3ccc(O)cc3)c3ccccc23)cc1		> 100 µM	> 100 µM	> 100 µM	> 100 µM			> 100 µM	> 100 µM		> 100 µM									
OC1(c2ccccc2)CC2CCC(C1)N2CCCC(O)(c1ccccc1)c1ccccc1 (configuration not stated)	56.8 µM	6.25 µM	36.1 µM	22.4 µM	30.8 µM	33.3 µM		30 µM	37.6 µM	26.3 µM	4 µM									
O=[N+]([O-])c1ccc(CSc2nn(Cc3ccc([N+](=O)[O-])cc3)cc3ncnc2-3)cc1		> 100 µM	> 100 µM	> 100 µM	> 100 µM	> 100 µM	> 100 µM	> 100 µM	49.1 µM	84.8 µM	> 100 µM									
CC1(CO)C(O)CCC2(C)C1CCC1CC3CC12CCC3(O)CO (configuration not stated)		> 100 µM	> 100 µM	> 100 µM		> 100 µM		> 100 µM	> 100 µM		> 100 µM									
Cc1ccc2nc(N)[nH]c(=O)c2c1Sc1ccncc1		> 100 µM	> 100 µM	> 100 µM	> 100 µM			> 100 µM	> 100 µM		> 100 µM									
N#C/C(=C\c1ccc(O)c(O)c1)c1c(C#N)c(N)nn1-c1ccccc1		26.4 µM	19.6 µM	44 µM	31.9 µM			6.63 µM	49.8 µM		> 100 µM									
O=C([CH-]C(=O)c1ccccc1)c1ccccc1.[C-]#[O+].[C-]#[O+].[Ir]		> 100 µM		> 100 µM	> 100 µM			> 100 µM	> 100 µM		> 100 µM		> 100 µM		46.5 µM	54.3 µM		> 100 µM	> 100 µM	> 100 µM
Oc1cc(O)c2c(c1)O[C@H](c1ccc(O)c(O)c1)[C@@H](O)C2	> 100 µM	> 100 µM	> 100 µM	> 100 µM	> 100 µM	> 100 µM	> 100 µM	> 100 µM	> 100 µM		> 100 µM									
CCN(CC)CC1CCCCN1CC(=O)N1c2cc(Cl)ccc2NC(=O)CC1C (configuration not stated)		> 100 µM	> 100 µM	> 100 µM	> 100 µM			> 100 µM	> 100 µM		> 100 µM									
O=Cc1c2c(cc3c1CC1(C3)Cc3cc4c(c(C=O)c3C1)CCCC4)CCCC2	> 100 µM	> 31.6 µM	> 31.6 µM	> 31.6 µM	> 31.6 µM	> 31.6 µM	> 31.6 µM	> 31.6 µM			> 31.6 µM									
O=S(=O)(O)c1ccc2c(N=Nc3cccc4ccccc34)c(O)ccc2c1	> 100 µM		> 100 µM	> 100 µM	> 100 µM		> 100 µM	> 100 µM	> 100 µM	> 100 µM	> 100 µM									
CC(=O)Nc1ccc(-c2nnc(SCC(=O)Nc3cccc(C)c3)o2)cc1			24.1 µM	15.6 µM	25.6 µM			24.2 µM	28.6 µM		24.9 µM									
COc1ccccc1-n1cnc2c1NC(C)(C)N=C2C(N)=O	> 100 µM	> 100 µM	> 100 µM	> 100 µM	> 100 µM	> 100 µM	> 100 µM	> 100 µM	> 100 µM		> 100 µM									
Cc1ccc(S(=O)(=O)NC(=O)C2S(=O)(=O)OCCOS2(=O)=O)cc1		> 100 µM	> 100 µM		> 100 µM			> 100 µM	> 100 µM		> 100 µM									
O=C1c2ccccc2N=C(c2cc3c(cc2Cl)Sc2nccn2S3(=O)=O)OS(=O)(=O)N1c1ccccc1	> 100 µM	36 µM	31.5 µM	32 µM	47.5 µM	81.5 µM		> 100 µM		61.1 µM	> 100 µM									
CCCCn1c(-c2ccccc2)cs/c1=N\N=C1C=C(C(C)(C)C)C(=O)C(C(C)(C)C)=C1		> 100 µM	> 100 µM	> 100 µM	> 100 µM			> 100 µM	> 100 µM		> 100 µM									

From PubChem BioAssay (NCI)
